According to ChEMBL document CHEMBL1129824, “Nonpeptidic inhibitors of recombinant human calpain I” (Bioorg Med Chem Lett, 1997):

Tests used:
[1] = target: Prothrombin (Homo sapiens) (UniProt P00734); experiment: Inhibitory activity using serine protease, thrombin with Cbz-Phe-Val-Arg-AMC as substrate. The percent inhibition at 10 uM concentration, was reported.
[2] = target: Chymotrypsinogen A (Bos taurus) (UniProt P00766); experiment: Inhibitory activity using serine protease, alpha-chymotrypsin with Succ-Ala-Ala-Pro-Phe-AMC as substrate. The percent inhibition at 10 uM concentration, was reported.
[3] = target: T1, Calpain-1 catalytic subunit (Homo sapiens, UniProt P07384); experiment: Inhibitory activity using recombinant human Calpain 1 with Suc-Leu-Tyr-MNA as substrate.
T1 sequence (P07384 whole entry): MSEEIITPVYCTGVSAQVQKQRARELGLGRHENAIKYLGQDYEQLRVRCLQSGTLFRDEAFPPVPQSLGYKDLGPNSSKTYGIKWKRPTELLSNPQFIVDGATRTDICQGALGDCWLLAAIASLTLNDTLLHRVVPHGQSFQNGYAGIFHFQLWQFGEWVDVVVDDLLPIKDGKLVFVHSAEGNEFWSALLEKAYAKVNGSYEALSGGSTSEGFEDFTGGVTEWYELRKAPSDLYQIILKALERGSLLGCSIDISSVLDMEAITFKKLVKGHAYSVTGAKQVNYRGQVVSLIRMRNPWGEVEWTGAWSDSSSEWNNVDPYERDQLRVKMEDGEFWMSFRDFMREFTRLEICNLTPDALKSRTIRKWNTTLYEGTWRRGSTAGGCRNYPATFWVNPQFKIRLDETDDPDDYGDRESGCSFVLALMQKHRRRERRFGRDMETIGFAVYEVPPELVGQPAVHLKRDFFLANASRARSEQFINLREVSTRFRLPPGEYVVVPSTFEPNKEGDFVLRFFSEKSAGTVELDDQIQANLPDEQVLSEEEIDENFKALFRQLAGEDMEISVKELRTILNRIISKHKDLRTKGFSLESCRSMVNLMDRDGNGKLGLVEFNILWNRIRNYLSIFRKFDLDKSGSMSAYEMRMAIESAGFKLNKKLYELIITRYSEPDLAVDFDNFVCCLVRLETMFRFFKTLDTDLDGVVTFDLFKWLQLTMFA

[4] = target: Cathepsin B (Homo sapiens, UniProt P07858); experiment: Inhibitory activity using cysteine protease, Cathepsin B with Cbz-Phe-Arg-AMC as substrate.

inhibition [1]	inhibition [2]	IC50 [3]	IC50 [4]	SMILES
2%	12%			CC(C)C[C@@H](CCS(=O)(=O)c1ccc2ccccc2c1)C(=O)N[C@H](C=O)CC(C)C
1%	11%			CC(C)C[C@H](CCS(=O)(=O)c1ccc2ccccc2c1)C(=O)N[C@H](C=O)CC(C)C
5%	11%	75 nM	60 nM	CC(C)C[C@H](CCSc1ccc2ccccc2c1)C(=O)N[C@H](C=O)CC(C)C
2%	18%	30 nM	60 nM	CC(C)C[C@H](CC[S+]([O-])c1ccc2ccccc2c1)C(=O)N[C@H](C=O)CC(C)C (some centres not stated)
